Assay results from paper PMC11729428, “New Potent Inhibitor of Transforming Growth Factor-Beta (TGFβ) Signaling that is Efficacious against Microsatellite Stable Colorectal Cancer Metastasis in Combination with Immune Checkpoint Therapy in Mice” (ACS Pharmacology & Translational Science, 2024).

Assays:
ALK5 = conditions: structure-activity relationship study of Li et al. ref 16; cited from earlier work
in vitro [1] = conditions: mouse
Experimental: (§1) 5. Methods for In vitro characterizations of HYL001 […]
(§2) Rapid equilibrium dialysis was performed in triplicates with a rapid equilibrium dialysis (RED) by Sai Life Sciences Lt. (Telangana, India). The RED device contains a dialysis membrane with a molecular weight cut -off […]
(§3) of 8,000 Da, separating two chambers for plasma and buffer, respectively. […]
(§4) were added to the plasma chamber, versus phosphate buffer saline (pH 7.4) to the buffer chamber. Dialysis was performed for 4 h with 100 RPM shaking at 37 °C. […]
(§5) compounds in plasma were either frozen immediately (T0 sample), or incubated at 37 °C for 4 h without dialysis (non-dialysed), respectively.
(§6) Following dialysis, an aliquot was removed from either chamber and diluted with equal volume of opposite matrix to nullify the matrix effect. Similarly, buffer was added to recovery and stability samples. Next, acetonitrile (containing internal standard, glipizide) was added to the mixtures for protein precipitation and vortexed for 5 minutes. The samples were centrifuged at 4000 RPM at 4 °C for 10 min and the supernatant was submitted for liquid chromatography mass spectrometry (LC-MS/MS) analysis. Samples were monitored for parent compound using multiple reaction monitoring (MRM) mode.
(§7) The peak area ratios (PAR, analyte versus internal standard) in plasma vs bufffer were used to determine the fraction of compound bound to plasma proteins. The following equation was used to determine the extent of plasma protein binding: percent free drug = 100% x (PARbuffer / PARplasma); percent bound drug = 100 - % free drug. Recovery was calculated as 100% x (PARplasma + PARbuffer)dialysed / (PARplasma)non-dialysed; stability as 100% x (PAR)non-dialysed / (PARplasma)frozen at T0. […]

in vitro [2] = conditions: human
Experimental: as §1, §2, §3, §4, §5, §6, §7

in vitro [3] = conditions: rat
Experimental: as §1, §2, §3, §4, §5, §6, §7

recovery at 4 h, 5 µM (in vitro [1]; pH 7.4) | % Compound remaining at 4 hrs (in vitro [1]; plasma, 4 h, 5 µM) | recovery at 4 h, 5 µM (in vitro [2]; pH 7.4) | % Compound remaining at 4 hrs (in vitro [2]; plasma, 4 h, 5 µM) | recovery at 4 h, 5 µM (in vitro [3]; pH 7.4) | % Compound remaining at 4 hrs (in vitro [3]; plasma, 4 h, 5 µM) | SMILES | IC50 (ALK5)
 |  |  |  |  |  | Cc1cccc(-c2nn3c(c2-c2ccnc4ccc(Br)cc24)CCC3)n1 [6-Br, 6-Bromo-4-(2-(6-methylpyridin-2-yl)-5,6-dihydro-4H-pyrrolo[1,2-b]pyrazol-3-yl) Quinoline] | 89 nM
99.9% | 106.2% | 100% | 84.2% | 98.6% | 104.8% | CC(=O)CC(c1ccccc1)c1c(O)c2ccccc2oc1=O (stereo not shown) [Warfarin, reference compound] | 
